Measured values from patent US6914045B2, “Glycopeptide antibiotics” (Wyeth Holdings Corporation, priority 2001, dated 2005).
Numbered stars: 1 amine (or outer) side, 2 acyl side, 3 side chain; on linkers, the order of the positions; unused ones are H or OH. Square brackets hold non-standard residues; d marks the D form. Peptide text beside a SMILES is read from it. * marks the point of attachment. ξ: configuration not given here. X1 = N=C1NCC(C(O)C(N[*:1])C(=O)[*:2])N1C1OC(CO)C(O)C(O)C1O; ξEnduracididine(βξ-OH,4'ξ) = N=C1NCC(C(O)C(N)C(=O)O)N1; ξPhe(4-Cl,βξ-Me) = CC(c1ccc(Cl)cc1)C(N)C(=O)O; X2 = OCC1OC(OC2C(CO)OC(*)C(O)C2O)C(O)C(O)C1O

Tests used:
Experiment in all cases: in vitro antibacterial evaluation, MIC by broth dilution
Format in all cases: cell-based
Staphylococcus sp. = conditions: broth dilution, 18 hours at 35° C.
Summary of the method: (§1)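 Following National Committee for Clinical Laboratory Standards recommendations (M7-A2), susceptibility was measured by dilution in Muller-Hinton II […]. Bacteria were seeded at 5×10^5 CFU/mL against compound concentrations from 64 down to 0.06 μg/mL.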

Streptococcus sp. = tested on: Streptococcus sp.
Summary of the method: as §1

Enterococcus sp. = tested on: Enterococcus sp.
Summary of the method: as §1

Escherichia coli = tested on: Escherichia coli
Summary of the method: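 Read-out: the lowest concentration at which the test strain fails to grow. Serial dilutions (64-0.06 μg/mL) in Muller-Hinton II […], 5×10^5 CFU/mL inoculum, NCCLS M7-A2 procedure.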

CC(c1ccc(Cl)cc1)C1NC(=O)CNC(=O)C(CO)NC(=O)C(C(O)C2CNC(=N)N2C2OC(CO)C(O)C(O)C2O)NC(=O)C(C(O)C2CNC(=N)N2)NC(=O)C(Cc2ccc(OC3OC(CO)C(OC4OC(CO)C(O)C(O)C4O)C(O)C3O)cc2)NC1=O (stereo not drawn) [Example 262a, Cyclo[glycyl-4-chloro-β-methylphenylalanyl-O-(4-O-hexopyranosylhexopyranosyl)tyrosyl-3-(2-iminoimidazolidin-4-yl)seryl-3-(3-hexoopyranosyl-2-iminoimidazolidin-4-yl)serylseryl]] (cyclo(G[ξPhe(4-Cl,βξ-Me)]Y(X2)[ξEnduracididine(βξ-OH,4'ξ)][X1]S); configuration not given here)
>128 µg/mL: MIC Staphylococcus aureus (GC 4542) (Staphylococcus sp.) | MIC Staphylococcus aureus (GC 4542) (Staphylococcus sp.; strain GC 4542) | MIC Enterococcus avium (GC 4558) (Enterococcus sp.; Enterococcus avium (GC 4558); broth dilution, 18 hours at 35° C.) | MIC Enterococcus faecalis (ATCC 29212) (Enterococcus sp.; Enterococcus faecalis (ATCC 29212); broth dilution, 18 hours at 35° C.) | MIC Enterococcus faecalis (GC 4553) (Enterococcus sp.; Enterococcus faecalis (GC 4553); broth dilution, 18 hours at 35° C.) | MIC Enterococcus faecalis (GC 4554) (Enterococcus sp.; Enterococcus faecalis (GC 4554); broth dilution, 18 hours at 35° C.) | MIC Enterococcus faecium (GC 2243) (Enterococcus sp.; Enterococcus faecium (GC 2243); broth dilution, 18 hours at 35° C.) | MIC Enterococcus faecium (GC 4556) (Enterococcus sp.; Enterococcus faecium (GC 4556); broth dilution, 18 hours at 35° C.) | MIC Enterococcus faecium (GC 4557) (Enterococcus sp.; Enterococcus faecium (GC 4557); broth dilution, 18 hours at 35° C.) | MIC Enterococcus faecalis (ATCC 29212) (Enterococcus sp.; broth dilution, 18 hours at 35° C.; strain ATCC 29212) | MIC Enterococcus faecalis (GC 2242) (Enterococcus sp.; broth dilution, 18 hours at 35° C.; strain GC 2242) | MIC Enterococcus faecium (GC 2243) (Enterococcus sp.; broth dilution, 18 hours at 35° C.; strain GC 2243) | MIC Enterococcus faecalis (GC 4552) (Enterococcus sp.; broth dilution, 18 hours at 35° C.; strain GC 4552) | MIC Enterococcus faecalis (GC 4553) (Enterococcus sp.; broth dilution, 18 hours at 35° C.; strain GC 4553) | MIC Enterococcus faecalis (GC 4554) (Enterococcus sp.; broth dilution, 18 hours at 35° C.; strain GC 4554) | MIC Enterococcus faecium (GC 4556) (Enterococcus sp.; broth dilution, 18 hours at 35° C.; strain GC 4556) | MIC Enterococcus faecium (GC 4557) (Enterococcus sp.; broth dilution, 18 hours at 35° C.; strain GC 4557) | MIC Enterococcus avium (GC 4558) (Enterococcus sp.; broth dilution, 18 hours at 35° C.; strain GC 4558) | MIC Escherichia coli (ATCC 25922) (Escherichia coli; Escherichia coli (ATCC 25922), 18 hours at 35° C.) | MIC Escherichia coli (GC 4559) (Escherichia coli; Escherichia coli (GC 4559), 18 hours at 35° C.)
64 µg/mL: MIC Coagulase Negative Staphylococcus (GC 4547) (Staphylococcus sp.) | MIC Coagulase Negative Staphylococcus (GC 4548) (Staphylococcus sp.) | MIC Staphylococcus aureus (ATCC 29213) (Staphylococcus sp.) | MIC Staphylococcus aureus (GC 4541) (Staphylococcus sp.) | MIC Staphylococcus aureus (GC 4544) (Staphylococcus sp.) | MIC Staphylococcus aureus (GC 4545) (Staphylococcus sp.) | MIC Staphylococcus aureus-SMITH (GC 4543) (Staphylococcus sp.) | MIC Staphylococcus haemolyticus (GC 4546) (Staphylococcus sp.) | MIC Staphylococcus aureus (ATCC 29213) (Staphylococcus sp.; strain ATCC 29213) | MIC Staphylococcus aureus (GC 4541) (Staphylococcus sp.; strain GC 4541) | MIC Staphylococcus aureus (GC 4544) (Staphylococcus sp.; strain GC 4544) | MIC Staphylococcus aureus (GC 4545) (Staphylococcus sp.; strain GC 4545) | MIC Staphylococcus haemolyticus (GC 4546) (Staphylococcus sp.; strain GC 4546) | MIC Coagulase Negative Staphylococcus (GC 4547) (Staphylococcus sp.; strain GC 4547) | MIC Coagulase Negative Staphylococcus (GC 4548) (Staphylococcus sp.; strain GC 4548) | MIC Staphylococcus aureus-SMITH (GC 4543) (Staphylococcus sp.; strain SMITH GC 4543)
32 µg/mL: MIC Streptococcus agalactiae (GC 4564) (Streptococcus sp.; broth dilution, 18 hours at 35° C.; strain GC 4564) | MIC Streptococcus pyogenes (ID-3187) (Streptococcus sp.; broth dilution, 18 hours at 35° C.; strain ID-3187)
16 µg/mL: MIC Coagulase Negative Staphylococcus (GC 4549) (Staphylococcus sp.) | MIC Coagulase Negative Staphylococcus (GC 4549) (Staphylococcus sp.; strain GC 4549) | MIC Escherichia coli (GC 4560) (Escherichia coli; Escherichia coli (GC 4560), 18 hours at 35° C.)
128 µg/mL: MIC Coagulase Negative Staphylococcus (GC 4551) (Staphylococcus sp.) | MIC Staphylococcus aureus (GC 1131) (Staphylococcus sp.) | MIC Staphylococcus aureus (GC 1131) (Staphylococcus sp.; strain GC 1131) | MIC Coagulase Negative Staphylococcus (GC 4551) (Staphylococcus sp.; strain GC 4551)

CSc1ccc(C2OCC3OC(OC4C(CO)OC(Oc5ccc(CC6NC(=O)C(C(C)c7ccccc7)NC(=O)CNC(=O)C(CO)NC(=O)C(C(O)C7CNC(=N)N7C7OC(CO)C(O)C(O)C7O)NC(=O)C(C(O)C7CNC(=N)N7)NC6=O)cc5)C(O)C4O)C(O)C(O)C3O2)cc1[N+](=O)[O-] (stereo not shown) [Example 168]
1 µg/mL: MIC Staphylococcus aureus (GC 1131) (Staphylococcus sp.; inoculum 5×10^5 CFU/mL, strain GC 1131) | MIC Staphylococcus aureus (ATCC 29213) (Staphylococcus sp.; strain ATCC 29213) | MIC Staphylococcus aureus (GC 1131) (Staphylococcus sp.; strain GC 1131) | MIC Staphylococcus aureus (GC 3051) (Staphylococcus sp.; strain GC 3051) | MIC Staphylococcus aureus (GC 3053) (Staphylococcus sp.; strain GC 3053) | MIC Staphylococcus aureus (GC 4541) (Staphylococcus sp.; strain GC 4541) | MIC Staphylococcus aureus (GC 4542) (Staphylococcus sp.; strain GC 4542) | MIC Staphylococcus aureus-SMITH (GC 4543) (Staphylococcus sp.; strain GC 4543) | MIC Staphylococcus aureus (GC 4545) (Staphylococcus sp.; strain GC 4545) | MIC Coagulase Negative Staphylococcus (GC 4551) (Staphylococcus sp.; strain GC 4551) | MIC Enterococcus faecium (GC 4557) (Enterococcus sp.; broth dilution, inoculum 5×10^5 CFU/mL, 18 hours at 35° C.; strain GC 4557) | MIC Enterococcus faecium (GC 4557) (Enterococcus sp.; strain GC 4557; broth dilution, 18 hours at 35° C.)
64 µg/mL: MIC Escherichia coli (ATCC 25922) (Escherichia coli; strain ATCC 25922, 18 hours at 35° C.)
0.5 µg/mL: MIC Staphylococcus haemolyticus (GC 4546) (Staphylococcus sp.; strain GC 4546) | MIC Coagulase Negative Staphylococcus (GC 4548) (Staphylococcus sp.; strain GC 4548) | MIC Coagulase Negative Staphylococcus (GC 4549) (Staphylococcus sp.; strain GC 4549) | MIC Streptococcus pyogenes (GC 4563) (Streptococcus sp.; broth dilution, inoculum 5×10^5 CFU/mL, 18 hours at 35° C.; strain GC 4563) | MIC Streptococcus pyogenes (GC 4563) (Streptococcus sp.; strain GC 4563; broth dilution, 18 hours at 35° C.) | MIC Escherichia coli (GC 4560) (Escherichia coli; strain GC 4560, 18 hours at 35° C.)
16 µg/mL: MIC Escherichia coli (GC 4559) (Escherichia coli; strain GC 4559, 18 hours at 35° C.)
2 µg/mL: MIC Staphylococcus aureus (GC 4544) (Staphylococcus sp.; strain GC 4544) | MIC Coagulase Negative Staphylococcus (GC 4547) (Staphylococcus sp.; strain GC 4547) | MIC Enterococcus faecalis (ATCC 29212) (Enterococcus sp.; broth dilution, inoculum 5×10^5 CFU/mL, 18 hours at 35° C.; strain ATCC 29212) | MIC Enterococcus faecalis (GC 2242) (Enterococcus sp.; broth dilution, inoculum 5×10^5 CFU/mL, 18 hours at 35° C.; strain GC 2242) | MIC Enterococcus faecium (GC 2243) (Enterococcus sp.; broth dilution, inoculum 5×10^5 CFU/mL, 18 hours at 35° C.; strain GC 2243) | MIC Enterococcus faecalis (GC 2691) (Enterococcus sp.; broth dilution, inoculum 5×10^5 CFU/mL, 18 hours at 35° C.; strain GC 2691) | MIC Enterococcus faecalis (GC 3059) (Enterococcus sp.; broth dilution, inoculum 5×10^5 CFU/mL, 18 hours at 35° C.; strain GC 3059) | MIC Enterococcus faecalis (GC 4552) (Enterococcus sp.; broth dilution, inoculum 5×10^5 CFU/mL, 18 hours at 35° C.; strain GC 4552) | MIC Enterococcus faecalis (GC 4553) (Enterococcus sp.; broth dilution, inoculum 5×10^5 CFU/mL, 18 hours at 35° C.; strain GC 4553) | MIC Enterococcus faecalis (GC 4554) (Enterococcus sp.; broth dilution, inoculum 5×10^5 CFU/mL, 18 hours at 35° C.; strain GC 4554) | MIC Enterococcus faecium (GC 4556) (Enterococcus sp.; broth dilution, inoculum 5×10^5 CFU/mL, 18 hours at 35° C.; strain GC 4556) | MIC Enterococcus avium (GC 4558) (Enterococcus sp.; broth dilution, inoculum 5×10^5 CFU/mL, 18 hours at 35° C.; strain GC 4558) | MIC Enterococcus faecalis (GC 6189) (Enterococcus sp.; broth dilution, inoculum 5×10^5 CFU/mL, 18 hours at 35° C.; strain GC 6189) | MIC Enterococcus faecalis (ATCC 29212) (Enterococcus sp.; strain ATCC 29212; broth dilution, 18 hours at 35° C.) | MIC Enterococcus faecalis (GC 2242) (Enterococcus sp.; strain GC 2242; broth dilution, 18 hours at 35° C.) | MIC Enterococcus faecium (GC 2243) (Enterococcus sp.; strain GC 2243; broth dilution, 18 hours at 35° C.) | MIC Enterococcus faecalis (GC 2691) (Enterococcus sp.; strain GC 2691; broth dilution, 18 hours at 35° C.) | MIC Enterococcus faecalis (GC 3059) (Enterococcus sp.; strain GC 3059; broth dilution, 18 hours at 35° C.) | MIC Enterococcus faecalis (GC 4552) (Enterococcus sp.; strain GC 4552; broth dilution, 18 hours at 35° C.) | MIC Enterococcus faecalis (GC 4553) (Enterococcus sp.; strain GC 4553; broth dilution, 18 hours at 35° C.) | MIC Enterococcus faecalis (GC 4554) (Enterococcus sp.; strain GC 4554; broth dilution, 18 hours at 35° C.) | MIC Enterococcus faecium (GC 4556) (Enterococcus sp.; strain GC 4556; broth dilution, 18 hours at 35° C.) | MIC Enterococcus avium (GC 4558) (Enterococcus sp.; strain GC 4558; broth dilution, 18 hours at 35° C.) | MIC Enterococcus faecalis (GC 6189) (Enterococcus sp.; strain GC 6189; broth dilution, 18 hours at 35° C.)
<0.12 µg/mL: MIC Streptococcus pneumoniae (ATCC 6301) (Streptococcus sp.; broth dilution, inoculum 5×10^5 CFU/mL, 18 hours at 35° C.; strain ATCC 6301) | MIC Streptococcus pneumoniae (GC 1894) (Streptococcus sp.; broth dilution, inoculum 5×10^5 CFU/mL, 18 hours at 35° C.; strain GC 1894) | MIC Streptococcus agalactiae (GC 4564) (Streptococcus sp.; broth dilution, inoculum 5×10^5 CFU/mL, 18 hours at 35° C.; strain GC 4564) | MIC Streptococcus pneumoniae (GC 4565) (Streptococcus sp.; broth dilution, inoculum 5×10^5 CFU/mL, 18 hours at 35° C.; strain GC 4565) | MIC Streptococcus pneumoniae (ATCC 6301) (Streptococcus sp.; strain ATCC 6301; broth dilution, 18 hours at 35° C.) | MIC Streptococcus pneumoniae (GC 1894) (Streptococcus sp.; strain GC 1894; broth dilution, 18 hours at 35° C.) | MIC Streptococcus agalactiae (GC 4564) (Streptococcus sp.; strain GC 4564; broth dilution, 18 hours at 35° C.) | MIC Streptococcus pneumoniae (GC 4565) (Streptococcus sp.; strain GC 4565; broth dilution, 18 hours at 35° C.)
